In general, viability refers to a read-out of living cells in per cent, often relative to untreated cells. Lower therefore signals more harm to the cells. The term inhibition denotes the drop in the measured response relative to a control, in per cent. Broadly, the IC50 is the concentration that gives 50% inhibition. Broadly, the EC50 is the concentration that produces a half-maximal response. What is called CC50 is the concentration at which the toxic effect on the cells reaches its halfway point.

This note sets out measurements from publication PMC7823652 (Viruses, 2020).

Structures are written as SMILES. Read-outs that look alike come from different tables or passages of the source.

Data set [1] has as its system ZIKV. Description: Image-based phenotypic antiviral screen in ZIKV-infected U87 cells. The format is cell-based, Zika virus (strain H/PF/2013). The following applies: for Infected Cells (U87, ZIKV) / Viral Titer (ZIKV): screen, U87 cells; for inhibition at 10 µM: Zika virus, U-87 MG.
The nature of data set [2]: Screen cytotoxicity by nuclei count in ZIKV-infected U87 cells. It is filed as cell-based. The following applies: human; for viability at 48 h, 10 µM / viability at 10 µM: ZIKV-infected U87 cells; for viability at 48 h, 10 µM: ZIKV MOI 10, compound 10 µM, nuclei count relative to DMSO; for viability at 10 µM: screen.
Data set [3] concerns HAZV. Description: microbe, parasite or virus in culture. It is filed as cell-based, Hazara virus (isolate JC280). Conditions: for inhibition at 10 µM: Hazara virus, SW13, 24 h; for Infected Cells (SW13, HAZV) / Viral Titer (HAZV): screen, SW13 cells.
For data set [4], the system named is ZIKV. Description: Antiviral dose-response in ZIKV-infected U87 cells (infected cells, viral titer). Conditions: for EC50: U87, ZIKV MOI 1, 48 h. The format is cell-based, Zika virus (strain H/PF/2013).
Data set [5] has as its system ZIKV. Description: Antiviral dose-response in ZIKV-infected Vero cells. It is filed as cell-based, Zika virus (strain H/PF/2013). The following applies: Zika virus, 48 h.
Data set [6] relates to U87 cells. The data set is described as follows: Cell viability by nuclei count in ZIKV-infected U87 cells. It is filed as cell-based, Human.
Data set [7] has as its system Vero cells. Description: Cell viability by nuclei count in ZIKV-infected Vero cells. It is filed as cell-based, African Green Monkey.
Data set [8] can be described thus: Cell viability assay (Resazurin), uninfected U87 cells. Conditions: human, read-out: Viability CC50 [µM] (95%-CI); for CC50 at 24 h: uninfected U87, 24 h; for CC50 at 48 h: uninfected U87, 48 h; for CC50 at 72 h: uninfected U87, 72 h. The format is cell-based, Human. Background: Resazurin is reduced to fluorescent resorufin, in cell work by metabolically active cells.

Data set [9] deals with ZIKV. Description: Time-of-addition assay in ZIKV-infected U87 cells. The format is cell-based, Zika virus (strain H/PF/2013).
Data set [10] in a line: in vitro. The following applies: human.
Data set [11] relates to ZIKV. Description: Time course of ZIKV replication in U87 cells (vRNA, infected cells, titer).
Data set [12] has as its target hOGG1 (Homo sapiens, UniProt O15527). Description: hOGG1 IC50 (listed in supplementary data, method not described). The format is biochemical.
For data set [13], the system named is U87 cells. Description: Cell viability assay (Resazurin), uninfected U87 cells. The format is cell-based, Human. Conditions: for CC50: read-out: Viability CC50 [µM] (95%-CI).
For data set [14], the system named is ZIKV. The data set is described as follows: ZIKV infection (NS1 intensity) and viral titer in human cerebral organoids. The format is cell-based, Zika virus (strain H/PF/2013). The following applies: ZIKV 2 × 10^4 particles/organoid, 5 μM, all timepoints, relative to DMSO.
The test system of data set [15] is human brain organoids. The data set is described as follows: Viability and structure of ZIKV-infected human cerebral organoids. The following applies: ZIKV 2 × 10^4 particles/organoid, 5 μM, 7 dpi and 10 dpi.
The mark [16] stands for this setting: U87, ZIKV MOI 10, 100 µM Ribavirin (positive control), 48 h.
Setting [17] is: ZIKV MOI 10, 100 µM Ribavirin (positive control), 48 h.
The mark [18] stands for this setting: read-out: Inhibition of HAZV titer (%).
The mark [19] stands for this setting: read-out: Inhibition of primary HAZV infection (%).
Setting [20] is: U87, ZIKV MOI 1, from 24 hpi and onwards.
Where [21] appears, read: U87, ZIKV MOI 10, compound 10 µM, 48 h, relative to DMSO.
Where [22] appears, read: ZIKV MOI 10, compound 10 µM, 48 h, relative to DMSO.
Where [23] appears, read: U87, ZIKV MOI 10, compound 10 µM, 48 h, relative to DMSO, read-out: Inhibition of ZIKV titer (%).
Where [24] appears, read: U87, ZIKV MOI 10, compound 10 µM, 48 h, relative to DMSO, read-out: Inhibition of primary ZIKV infection (%).
Where [25] appears, read: Zika virus, U-87 MG, 48 h, read-out: Antiviral on primary infection IC50 [µM], ZIKV, U87, MOI 10, 48 h.
The mark [26] stands for this setting: Zika virus, U-87 MG, 48 h, read-out: Antiviral on titer (µM) IC50 [µM], ZIKV, U87, MOI 10, 48 h.
[27] abbreviates: Zika virus, U-87 MG, ZIKV NS1 staining, read-out: EC50 [μM] Infected cells.
The mark [28] stands for this setting: Zika virus, U-87 MG, end-point dilution assay, read-out: EC50 [μM] Viral titer.
Where [29] appears, read: Homo sapiens, U-87 MG, 48 h, read-out: Viability (nuclei count) EC50 [µM].

Chain of hOGG1 (O15527 whole entry): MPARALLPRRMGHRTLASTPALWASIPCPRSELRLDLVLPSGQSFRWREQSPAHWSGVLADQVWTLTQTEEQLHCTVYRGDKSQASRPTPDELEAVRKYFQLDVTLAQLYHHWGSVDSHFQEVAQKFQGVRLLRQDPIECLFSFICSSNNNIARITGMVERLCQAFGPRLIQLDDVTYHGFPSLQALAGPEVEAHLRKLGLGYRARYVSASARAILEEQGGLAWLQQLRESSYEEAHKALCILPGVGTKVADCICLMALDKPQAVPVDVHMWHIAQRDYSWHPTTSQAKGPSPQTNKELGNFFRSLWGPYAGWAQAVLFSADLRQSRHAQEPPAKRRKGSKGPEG

As to `NC(=O)c1ncn([C@@H]2O[C@H](CO)[C@@H](O)[C@H]2O)n1` [Ribavirin, reference compound], the “Inhibition of ZIKV titer (%)” value in [1] (setting [16]) came out at 63%. The “Inhibition of primary ZIKV infection (%)” value in data set [1] (setting [16]) amounted to 60%. Moreover, the “Viral Titer (ZIKV) (%)” value in data set [1] (setting [16]) is on record as 37%. Besides, the “Infected Cells (U87, ZIKV) (%)” value in data set [1] (setting [17]) is given as 40%. Further, the “Infected Cells (U87, ZIKV)” value in data set [1] turned out to be 40%. Besides, the “Viral Titer (ZIKV)” value in data set [1] was 37%. Also, the viability at 48 h, 100 µM in [2] (setting [17]) came to 91%. For the same molecule, the inhibition at 10 µM stood at 98% in data set [3] (setting [18]) and 47% in data set [3] (setting [19]). In addition, the “Infected Cells (SW13, HAZV)” value in [3] is given as 53%. For the same molecule, in [3], the “Viral Titer (HAZV)” value is recorded as 2%. The IC50 in data set [4] (Zika virus, U-87 MG, 48 h, ZIKV, U87, MOI 1, 48 h, read-out: Antiviral on primary infection IC50) is 60.7 µM; in [4] (Zika virus, U-87 MG, 48 h, ZIKV, U87, MOI 1, 48 h, read-out: Antiviral on titer (µM) IC50), 52.8 µM; in data set [4] (Zika virus, U-87 MG, 48 h, ZIKV, U87, MOI 10, 48 h, read-out: Antiviral on primary infection IC50), 59.2 µM; in [4] (Zika virus, U-87 MG, 48 h, ZIKV, U87, MOI 10, 48 h, read-out: Antiviral on titer (µM) IC50) it was 31.1 µM; in [5] (MOI 1, 48 h, read-out: Antiviral on primary infection IC50), 52.6 µM; in [5] (MOI 1, 48 h, read-out: Antiviral on titer (µM) IC50), 21 µM. Moreover, the IC50 was found to be 65.1 µM in [5] (MOI 10, 48 h, read-out: Antiviral on primary infection IC50) and 41 µM in data set [5] (MOI 10, 48 h, read-out: Antiviral on titer (µM) IC50). The concentration for a half-maximal effect (EC50) is > 200 µM in data set [6] (Homo sapiens, U-87 MG, ZIKV, U87, MOI 10, 48 h, read-out: Viability (nuclei count) EC50); > 200 µM in data set [6] (ZIKV, U87, MOI 1, 48 h, read-out: Viability (nuclei count) EC50); > 200 µM in [7] (Chlorocebus sabaeus, MOI 10, 48 h); > 200 µM in data set [7] (MOI 1, 48 h). Moreover, the half-maximal cytotoxic concentration (CC50) at 24 h in data set [8] (uninfected U87 cells) was > 300 µM. Besides, the CC50 at 48 h in data set [8] (uninfected U87 cells) was > 300 µM. The CC50 at 72 h in [8] (uninfected U87 cells) is > 300 µM. Further, the “reduction of ZIKV titers, post-inoculation step” value in [9] (U87, ZIKV MOI 10, 100 μM Ribavirin for 24 h after inoculation) was determined as 80%. Besides, in data set [9] (U87, ZIKV MOI 10, 100 μM Ribavirin from 22 h for 2 h), the “effect on viral titer, later steps (budding)” value was “no effect”. The “effect on viral titer, entry steps” value in data set [9] (U87, ZIKV MOI 10, 100 μM Ribavirin, pre-treatment and during inoculation) is “no effect”. Moreover, the viability at 10 µM in data set [10] came to 99%. For the same molecule, the viability at 24 h, 10 µM in data set [10] was determined as 99%. In data set [11] (U87, ZIKV MOI 1, all timepoints (24, 48, 72 h)), the “intracellular vRNA levels” value is listed as “reduced”. Also, the ZIKV titers entry in data set [11] (setting [20]) was “reduced”. Further, the “extracellular vRNA” value in data set [11] (setting [20]) is reported as “reduced”.

With `O=C(Nc1ccc(I)cc1)N1CCC(n2c(=O)[nH]c3cc(Cl)ccc32)CC1` [TH3289], in data set [1] (setting [21]), the “Viral Titer (ZIKV) (%)” value is 4%. In addition, in data set [1] (setting [22]), the “Infected Cells (U87, ZIKV) (%)” value worked out at 59%. Further, the inhibition at 10 µM in [1] (setting [23]) worked out at 96%; in [1] (setting [24]), 41%; in data set [3] (setting [18]) it was 95%; in [3] (setting [19]), 58%. Further, the “Infected Cells (U87, ZIKV)” value in [1] was 59%. Further, in data set [1], the “Viral Titer (ZIKV)” value was 4%. Also, in data set [2] (48 h), the viability at 48 h, 10 µM came out at 92%. Besides, the viability at 10 µM in data set [2] was 92%. The “Infected Cells (SW13, HAZV)” value in data set [3] amounted to 42%. Moreover, the “Viral Titer (HAZV)” value in [3] was found to be 5%. Further, the figures for the 50% inhibitory concentration (IC50) in data set [4] (setting [25]) and in [4] (setting [26]) were 2.8 µM and 2.5 µM, respectively. Also, the results for the EC50 in [4] (setting [27]), in [4] (setting [28]) and in data set [6] (setting [29]) were 2.8 µM, 2.5 µM and > 50 µM, respectively. In addition, the half-maximal cytotoxic concentration (CC50) at 24 h in data set [8] is > 50 µM. For the same molecule, in [8], the CC50 at 48 h was > 50 µM. In addition, in [8], the cytotoxic concentration (CC50) at 72 h was 34 µM. In addition, the viability at 24 h, 10 µM in data set [10] was 77%.

As for `O=C(Nc1ccc(I)cc1)N1CCC(n2c(=O)[nH]c3cc(C(F)(F)F)ccc32)CC1` [TH5264, N-(4-iodophenyl)-4-[2-oxo-5-(trifluoromethyl)-2,3-dihydro-1H-1,3-benzodiazol-1-yl]piperidine-1-carboxamide], the “Viral Titer (ZIKV) (%)” value in [1] (setting [21]) was 2%. Also, in data set [1] (setting [22]), the “Infected Cells (U87, ZIKV) (%)” value is recorded as 46%. The figures for the inhibition at 10 µM in [1] (setting [23]) and in data set [1] (setting [24]) were 98% and 54%, respectively. In addition, the “Infected Cells (U87, ZIKV)” value in data set [1] turned out to be 46%. In addition, the “Viral Titer (ZIKV)” value in [1] is on record as 2%. The same molecule came in with a viability at 48 h, 10 µM in data set [2] (48 h) of 86%. The viability at 10 µM in data set [2] came out at 86%. The IC50 in data set [4] (setting [25]) was determined as 2.7 µM; in data set [4] (setting [26]), 3.2 µM. Further, the EC50 in data set [4] (setting [27]) was found to be 2.7 µM; in data set [4] (setting [28]), 3.2 µM; in data set [6] (setting [29]), 26.7 µM. In data set [8], the half-maximal cytotoxic concentration (CC50) at 24 h is > 50 µM. Moreover, the cytotoxic concentration (CC50) at 48 h in data set [8] is > 50 µM. Further, the 50% cytotoxic concentration (CC50) at 72 h in data set [8] was 31.5 µM. The viability at 24 h, 10 µM in data set [10] was 94%.

`O=C(Nc1ccc(I)cc1)N1CCC(n2c(=O)[nH]c3c(Br)cccc32)CC1` [TH5487]: the half-maximal inhibitory concentration (IC50) in [12] was 0.142 µM; in data set [4] (ZIKV, U87, MOI 10, 48 h, read-out: Antiviral on primary infection IC50) it was 2.8 µM; in data set [4] (ZIKV, U87, MOI 10, 48 h, read-out: Antiviral on titer (µM) IC50) it was 2 µM; in data set [13] (U87, Resazurin, all measured time points (24, 48 or 72 h), read-out: IC50 (toxicity profile, cellular viability)) it was > 50 µM. For the same molecule, the EC50 came to 2.8 µM in [4] (ZIKV NS1 staining, read-out: EC50 [μM] Infected cells); 2 µM in data set [4] (end-point dilution assay, read-out: EC50 [μM] Viral titer); 35.2 µM in data set [6] (ZIKV, U87, MOI 10, 48 h, read-out: Viability (nuclei count) EC50). For the same molecule, the cytotoxic concentration (CC50) was > 50 µM in data set [13] (uninfected U87, 24 h); > 50 µM in data set [13] (uninfected U87, 48 h); > 50 µM in data set [13] (uninfected U87, 72 h). In addition, the “reduction of ZIKV progeny particles produced by the organoids” value in data set [14] was 60–70%. Moreover, in [15], the “phenotypic rescue (retained structure of organoids)” value is listed as “phenotypic rescue”.
